Earlier results in patent US10694745B2, “Method for controlling rust” (UPL LIMITED, priority 2013, dated 2020).

Experiments:
Phakopsora pachyrhizi = conditions: single fungicide
soybean = conditions: in vivo

Row | SMILES | control of soybean rust (Phakopsora pachyrhizi) | phytotoxicity (soybean)
1 | CO/C=C(/C(=O)OC)c1ccccc1Oc1cc(Oc2ccccc2C#N)ncn1 [Azoxystrobin] | good control | 
2 | O=C(Nc1ccccc1-c1ccc(Cl)cc1)c1cccnc1Cl [Boscalid] | moderate control | 
3 | c1ccc2[nH]c(-c3cscn3)nc2c1 [Thiabendazole] |  | phytotoxic
